Measured values taken from paper PMC10925993, “6-Aryl-4-cycloamino-1,3,5-triazine-2-amines: synthesis, antileukemic activity, and 3D-QSAR modelling” (RSC Advances, 2024).
Entries after “also recorded” stand apart in the source; their conditions may differ. Read-outs that look alike come from different tables or passages of the source.

Tests used:
Jurkat T cells [1] = assay: Antiproliferative screening at 10 μM, MTS assay; assay type: cell-based, human; settings: for viability at 10 µM: Homo sapiens, Jurkat T cells, 72 h after treatment, MTS, mean of three independent experiments, read-out: Cell viability (%)
Method: The Jurkat T cell line was chosen for its reliability as a model for chemotherapeutic studies, particularly in T-cell leukemia.[13]
An MTS (3-(4,5-dimethylthiazol-2-yl)-5-(3-carboxymethoxyphenyl)-2-(4-sulfophenyl)-2H-tetrazolium inner salt) assay[20] was used to assess the leukemic cell viability. […] A total of 2 × 10^3 cells per 100 μL cell culture media were seeded into each well of a 96-well plate and incubated for 24 h. Then, tested compounds or reference drugs [6-mercaptopurine (Merck Millipore, Germany), methotrexate (Merck Millipore, Germany) and cytarabine (Merck Millipore, Germany)] were added, followed by incubation for 72 h. […] The absorbance in each well was measured at 490 nm using a microplate reader (Tecan NanoQuant Infinite M200 Pro, Austria). The percentage of cell viability was estimated by comparing absorbance in wells with the treated and untreated (vehicle control) cells using the following formula: ODtreated/ODuntreated × 100%. All experiments were performed in triplicate and repeated in three independent experiments. The GI50 values were calculated using sigmoidal concentration-response curves generated by the GraphPad Prism 8 program.[21]

Jurkat T cells [2] = assay: Inhibition of Jurkat T cell growth (GI50), MTS assay; assay type: cell-based; settings: Homo sapiens
Method: These compounds were selected for further testing to estimate their 50% growth inhibition (GI50) value. Standard antileukemic drugs mercaptopurine, methotrexate and cytarabine were chosen as positive controls.
An MTS (3-(4,5-dimethylthiazol-2-yl)-5-(3-carboxymethoxyphenyl)-2-(4-sulfophenyl)-2H-tetrazolium inner salt) assay[20] was used to assess the leukemic cell viability. Jurkat T cells (human leukemic T cell, clone E6-1) from American Type Culture Collection (ATCC) were cultured in RPMI-1640 medium (Nacalai Tesque, Japan) supplemented with 10% v/v fetal bovine serum (FBS) (Biosera, France). The cells were maintained at 37 °C in a humidified 5% CO2 incubator (Thermo Fisher, USA). A total of 2 × 10^3 cells per 100 μL cell culture media were seeded into each well of a 96-well plate and incubated for 24 h. Then, tested compounds or reference drugs [6-mercaptopurine (Merck Millipore, Germany), methotrexate (Merck Millipore, Germany) and cytarabine (Merck Millipore, Germany)] were added, followed by incubation for 72 h. After that, a mixture of MTS (Sigma Aldrich, USA) and phenazine methosulfate (PMS) (Nacalai Tesque, Japan) were added to each well, followed by another incubation for 1 h to 4 h at 37 °C. The absorbance in each well was measured at 490 nm using a microplate reader (Tecan NanoQuant Infinite M200 Pro, Austria). The percentage of cell viability was estimated by comparing absorbance in wells with the treated and untreated (vehicle control) cells using the following formula: ODtreated/ODuntreated × 100%. All experiments were performed in triplicate and repeated in three independent experiments. The GI50 values were calculated using sigmoidal concentration-response curves generated by the GraphPad Prism 8 program.[21]

Jurkat T cells [3] = assay: AO/PI double fluorescence staining, cell morphology study; assay type: cell-based, human; settings: treatment at GI50 concentration, 24 h, 48 h, 72 h
Method: The GI50 value for this compound was selected as the treatment concentration. […] Moreover, some Jurkat T cells underwent late stages of apoptosis as shown by the reddish-orange stain (Fig. 4C). Similar events also occurred 48 h and 72 h after the treatment but with a lower number of viable cells (Fig. 4D and E).
Fluorescence microscopy was applied to portray apoptotic and necrotic changes in Jurkat T cells using AO/PI fluorescence staining.[23] The Jurkat T cells were cultured as described above. A total of 5 × 10^5 cells (based on the doubling time for the cell line) per 1 mL cell culture media were seeded into each well of a 6-well plate (Biologix, USA) and incubated for 24 h. […] The fluorescence dye containing AO (10 μg mL^−1, 16 μL) and PI (10 μg mL^−1, 13 μL) was prepared immediately prior to use. The treated cells, positive and negative controls containing dyes were examined immediately under an inverted UV-fluorescent microscope (Nikon Ti2-E, Japan) to prevent fluorescence dyes from fading. The images of viable cells and non-viable cells after treatment were taken by Nikon Ti2-E software. The observations were repeated in three independent experiments.

[4] = GI50 against Jurkat T cells converted to negative logarithmic scale, read-out: Experimental pGI50 (converted)
[5] = concentration required to inhibit Jurkat T cell growth by 50%, 72 h, MTS, mean of three independent experiments, read-out: GI50 ± SEM

Row | SMILES | viability at 10 µM (Jurkat T cells [1]) | Antiproliferative activity against Jurkat T cells (in words) (Jurkat T cells [1]; screening concentration 10 μM, 72 h) | GI50 (Jurkat T cells [2]; [4]) | GI50 (Jurkat T cells [2]; [5]) | melting point | Jurkat T cell morphology, type of cell death (AO/PI staining) (Jurkat T cells [3])
1 | CC1CCN(c2nc(N)nc(-c3ccc(OC(F)(F)F)cc3)n2)CC1 [9{3,12}, 6-[4-(Trifluoromethoxy)phenyl]-4-(4-methylpiperidino)-1,3,5-triazine-2-amine] | 5% | effectively inhibited Jurkat T cell growth | 3.24 µM | 3.23 ± 0.88 µM | 152 to 153 °C | 
2 | CC1CCN(c2nc(N)nc(-c3cccs3)n2)CC1 [9{3,18}, 4-(4-Methylpiperidino)-6-(2-thienyl)-1,3,5-triazine-2-amine] | 35% |  | 28.2 µM | 28.2 ± 1.03 µM | 155 to 156 °C | 
3 | Nc1nc(-c2ccc(Cl)cc2)nc(N2CCc3ccccc3C2)n1 [9{6,4}, 6-(4-Chlorophenyl)-4-(3,4-dihydroisoquinolin-2(1H)-yl)-1,3,5-triazine-2-amine] | 2% |  | 3.31 µM | 3.3 ± 0.65 µM | 183 to 184 °C | 
4 | Cc1cccc(-c2nc(N)nc(N3CCc4ccccc4C3)n2)c1 [9{6,5}, 6-(3-Methylphenyl)-4-(3,4-dihydroisoquinolin-2(1H)-yl)-1,3,5-triazine-2-amine] | 2% |  | 1.15 µM | 1.14 ± 0.13 µM | 145 to 146 °C | 
5 | Cc1ccc(-c2nc(N)nc(N3CCc4ccccc4C3)n2)cc1 [9{6,6}, 6-(4-Methylphenyl)-4-(3,4-dihydroisoquinolin-2(1H)-yl)-1,3,5-triazine-2-amine] | 4% |  | 1.78 µM | 1.79 ± 0.58 µM | 166 to 167 °C | 
6 | CC(C)(C)c1ccc(-c2nc(N)nc(N3CCc4ccccc4C3)n2)cc1 [9{6,7}, 6-[4-(tert-Butyl)phenyl]-4-(3,4-dihydroisoquinolin-2(1H)-yl)-1,3,5-triazine-2-amine] | 1% |  | 2.45 µM | 2.43 ± 0.57 µM | 162 to 164 °C | 
7 | COc1ccc(-c2nc(N)nc(N3CCc4ccccc4C3)n2)cc1 [9{6,9}, 6-(4-Methoxyphenyl)-4-(3,4-dihydroisoquinolin-2(1H)-yl)-1,3,5-triazine-2-amine] | 14% |  | 29.5 µM | 29.6 ± 2.2 µM | 165 to 166 °C | 
8 | Nc1nc(-c2ccc(C(F)(F)F)cc2)nc(N2CCc3ccccc3C2)n1 [9{6,11}, 6-[4-(Trifluoromethyl)phenyl]-4-(3,4-dihydroisoquinolin-2(1H)-yl)-1,3,5-triazine-2-amine] | 3% |  | 3.24 µM | 3.23 ± 0.16 µM | 181 to 182 °C | 
9 | Nc1nc(-c2ccc(OC(F)(F)F)cc2)nc(N2CCc3ccccc3C2)n1 [9{6,12}, 6-[4-(Trifluoromethoxy)phenyl]-4-(3,4-dihydroisoquinolin-2(1H)-yl)-1,3,5-triazine-2-amine] | 3% |  | 1.17 µM | 1.18 ± 0.22 µM | 119 to 120 °C | 
10 | Nc1nc(-c2cccc(Oc3ccccc3)c2)nc(N2CCc3ccccc3C2)n1 [9{6,13}, 4-(3,4-Dihydroisoquinolin-2(1H)-yl)-6-(3-phenoxyphenyl)-1,3,5-triazine-2-amine] | 4% |  | 1.55 µM | 1.54 ± 0.66 µM | 128 to 129 °C | 
11 | Nc1nc(-c2cccc(OCc3ccccc3)c2)nc(N2CCc3ccccc3C2)n1 [9{6,14}, 6-(3-(Benzyloxy)phenyl)-4-(3,4-dihydroisoquinolin-2(1H)-yl)-1,3,5-triazine-2-amine] | 23% |  | 6.61 µM | 6.54 ± 0.34 µM | 143 to 144 °C | 
12 | COc1ccc(-c2nc(N)nc(N3CCc4ccccc4C3)n2)cc1OC [9{6,16}, 6-(3,4-Dimethoxyphenyl)-4-(3,4-dihydroisoquinolin-2(1H)-yl)-1,3,5-triazin-2-amine] | 23% |  | 11.7 µM | 11.6 ± 2.12 µM | 159 to 160 °C | 
13 | Nc1nc(-c2ccc(F)cc2)nc(N2CCc3ccccc32)n1 [9{7,3}, 6-(4-Fluorophenyl)-4-(indolin-1-yl)-1,3,5-triazine-2-amine] | 35% |  | 1.91 µM | 1.89 ± 0.48 µM | 195 to 196 °C | 
14 | CN(C)c1ccc(-c2nc(N)nc(N3CCc4ccccc43)n2)cc1 [9{7,8}, 6-[4-(N,N-Dimethylamino)phenyl]-4-(indolin-1-yl)-1,3,5-triazine-2-amine] | 30% |  | 2.14 µM | 2.12 ± 0.97 µM | 226 to 227 °C | 
15 | Nc1nc(-c2ccc(OCc3ccccc3)cc2)nc(N2CCc3ccccc32)n1 [9{7,15}, 6-(4-(Benzyloxy)phenyl)-4-(indolin-1-yl)-1,3,5-triazine-2-amine] | 32% |  | 22.9 µM | 23.07 ± 0.08 µM | 188 to 189 °C | 
16 | COc1cc(-c2nc(N)nc(N3CCc4ccccc43)n2)cc(OC)c1OC [9{7,17}, 6-(3,4,5-Trimethoxyphenyl)-4-(indolin-1-yl)-1,3,5-triazine-2-amine] | 10% |  | 6.76 µM | 6.73 ± 0.43 µM | 199 to 200 °C | 
17 | Nc1nc(-c2cccs2)nc(N2CCc3ccccc32)n1 [9{7,18}, 4-(Indolin-1-yl)-6-(2-thienyl)-1,3,5-triazine-2-amine] | 20% |  | 6.03 µM | 6.03 ± 0.64 µM | 163 to 164 °C | 
18 | Nc1nc(-c2cccc(F)c2)nc(N2CCc3ccccc3C2)n1 [Compound 9{6,2}, 6-(3-Fluorophenyl)-4-(3,4-dihydroisoquinolin-2(1H)-yl)-1,3,5-triazine-2-amine] | 1% |  | 1.02 µM | 1.02 ± 0.3 µM |  | necrotic type of cell death; also recorded: probably involved aponecrosis; also recorded: triggered the aponecrosis
19 | CN(Cc1cnc2nc(N)nc(N)c2n1)c1ccc(C(=O)N[C@@H](CCC(=O)O)C(=O)O)cc1 [Methotrexate, methotrexate, reference compound] |  |  |  | 0.37 ± 0.03 µM |  | induced the late apoptotic morphological changes
